Source: patent publication US20120322685A1, “DEVICE FOR COLLECTING AND ANALYZING MIGRATORY TUMOR CELLS” (priority 2010, published 2012)

Key:
[1] = tested on: MDA-MB-231 derived mammary tumors; experiment: in vivo invasion assay, MDA-MB-231 derived mammary tumors; design: species or system human tumor xenograft in SCID mice tumor xenograft in SCID mice; details: MDA-MB-231 tumors in mammary fat pads of SCID mice; FIG. 1C
Description: Therefore, an in vivo invasion assay was created in which three needles (microneedles ˜100 um in diameter) containing matrigel and various growth factors are placed independently with microscopic precision, using a specially designed micromanipulator guided device, into the primary tumor for chemotaxis-based cell collection in vivo [3]. One needle contains control conditions (usually no ligand or an inhibitor), and the other two are identical. […] Fetal serum was also sufficient but this required signaling by the EGF receptor again implicating the EGF receptor. Furthermore, CSF-1 was also sufficient for cell collection. […]
Mammary tumors derived by injecting the human cell line MDA-MB-231 into a mammary fat pad of mice were used in the in vivo invasion assay. […] The involvement of EGF and CSF1 in carcinoma cell invasion has been analyzed from primary breast tumors derived from the injection of MDA-MB-231 cells into the mammary fat pads of SCID mice. […]

[2] = tested on: Human lung tumors heterotransplanted into nude mice; experiment: in vivo invasion assay, chemotaxis-based cell collection into needles, human lung tumor heterotransplants; details: needles containing 50 nM Heregulin; first mouse to mouse transplant
Description: Therefore, an in vivo invasion assay was created in which three needles (microneedles ˜100 um in diameter) containing matrigel and various growth factors are placed independently with microscopic precision, using a specially designed micromanipulator guided device, into the primary tumor for chemotaxis-based cell collection in vivo [3]. One needle contains control conditions (usually no ligand or an inhibitor), and the other two are identical. […] Fetal serum was also sufficient but this required signaling by the EGF receptor again implicating the EGF receptor. Furthermore, CSF-1 was also sufficient for cell collection. […] Migration and collection was directly correlated with macrophage density in the mammary gland, stage of progression to malignancy (only background levels of cells, <200 cells, were collected from normal mammary glands and adenoma stage tumors compared with carcinoma stage tumors, ˜1000 cells) and the presence of CSF1 in the tumor was required for cell collection as shown using mouse models with either decreased (op/op) or increased (tet on CSF-1) CSF-1 expression that regulates macrophage recruitment to the mammary gland and metastasis. […] Furthermore, the motility of tumor cells and intravasation occurs preferentially in association with macrophages. […]

## COc1cc2ncnc(Nc3ccc(F)c(Cl)c3)c2cc1OCCCN1CCOCC1 [Iressa]
[1]
  CSF1-mediated collection of invasive cells (tumor cell and macrophage invasion): inhibited
  EGF-mediated collection of invasive cells (tumor cell and macrophage invasion): inhibited

## Heregulin [reference compound]
[2]
  fold more cells collected in needles as compared to needles with buffer alone: 2 fold
